Consider 9 compounds from US9937182B2, “Therapeutic strategies for the treatment of preeclampsia” (UNIVERSITY OF IOWA RESEARCH FOUNDATION, priority 2013, dated 2018).

One data set concerns abdominal aorta. The data set can be described thus: Abdominal aortic ring vascular reactivity (organ bath). Type of data set: cell-based, mice. As to conditions: for Maximum Response: contractile response; for Emax: Mus musculus, relaxation after PGF2α contraction, read-out: Maximum Response. How it is done:
Aortic Vascular Reactivity: Abdominal aortic rings were assessed for vascular reactivity as previously described (32). Briefly, mice were euthanized by overdose of pentobarbital (50 mg, i.p.), and the abdominal aorta was quickly removed and placed in Kreb's buffer containing (in mmol/L): 118.3 NaCl, 4.7 KCl, 1.2 MgSO4, 1.2 KH2PO4, 25 NaHCO3, 2.5 CaCl2 and 11 glucose. Vascular rings (4-5 mm in length) were suspended in oxygenated Kreb's buffer (95% O2/5% CO2) in organ baths at 37° C. and connected to a force transducer via steel hooks. Resting tension was adjusted to 0.5 grams over 45 minutes. Contractile responses were tested in response to AVP (10^−10-10^−6 mol/L), phenylephrine (PE, 10^−8-3×10^−5), endothelin-1 (ET-1, 10^−10-10^−7), prostaglandin F2α (PGF2α, 10^−7-10^−4), and angiotensin II (Ang II, 10^−10-10^−7). Following sub-maximal contraction with PGF2α (40-50% of max; 3×10^−6-6×10^−6), relaxation responses to acetylcholine (10^−8-3×10^−5) and sodium nitroprusside (10^−9-10^−5) were determined.
(§1) Statistics: Data were analyzed by ANOVA with repeated measures as appropriate. Post-hoc analyses were performed using Bonferroni multiple-comparisons procedures. EC50 and maximum response calculations were performed by fitting individual dose-response data sets to a four-parameter logistic function (Hillslope method); y=min+([…])/(1+(x/EC50)^Hillslope). All mRNA fold changes were calculated using the Livak method (54). All analytical comparisons were performed using SigmaStat/SigmaPlot (Systat). All data are presented as mean±sem.

Data set [1] relates to sRA and control littermate mice. Briefly: Blood chemistry following tolvaptan infusion (iSTAT CHEM8+). Type of data set: in vivo. As to conditions: for Crenfinine: lower detection limit 0.20 mg/dl. How it is done: Blood pressure (tail-cuff). Here we first examined blood pressure in sRA mice using a Visitech Systems BP-2000 tail-cuff blood pressure monitoring system, as previously described (84). Briefly, animals were acclimated to warmed restraint boxes daily for 1 wk. Once acclimated, 30 measurements of systolic blood pressure were averaged from each animal daily for 2 wk to assess baseline blood pressure. Conivaptan (Vaprisol, YM 087, 22 ng/h sc, Baxter Healthcare) or tolvaptan (OPC-41061, 22 ng/h sc, Sigma Aldrich) was delivered to distinct subsets of mice by osmotic minipump (model 1004, Alzet). After osmotic minipump implantation, pressures were recorded daily for 10 days to assess drug effects.
Blood and urine analyses: Plasma was obtained by collecting whole blood by submandibular bleed into lithium heparin coated tubes, then centrifuged at 5,000×g for 5 minutes, and the supernatant transferred to a fresh tube and frozen at −80° C. until analysis. Urine was collected using Nalgene single-mouse metabolism cages as previously described (29). Copeptin was measured using an ELISA kit (USCN Life Sciences), according to the manufacturer's instructions. Blood chemistries and urine creatinine were determined using a handheld iSTAT clinical chemistry analyzer (Abbott), with CHEM8+ cartridges. Urine protein was determined using a bicinchoninic acid assay kit (Thermo Fisher/Pierce), according to the manufacturer's instructions.

The subject of data set [2] is polycystic kidney disease. As to conditions: average dose 95 mg per day over 3 years, cited from earlier work.
For data set [3], the system named is sRA mice. Briefly: Radiotelemetric blood pressure, heart rate and physical activity during antagonist infusion. Type of data set: in vivo. The protocol:
Blood pressure (telemetry). Radiotelemetric blood pressures were recorded from the carotid artery essentially as previously reported (29). Briefly, a telemeter probe (DSI, model TA11PA-C10) was inserted into the common carotid artery under ketamine-xylazine anesthesia. After >2 days of recovery, blood pressure, heart rate, and spontaneous physical activity were recorded for 30 s every 5 min using the Dataquest program (DSI). After baseline recordings, mice were chronically delivered conivaptan and tolvaptan via osmotic minipump that was implanted through an interscapular incision into the subcutaneous space of the back under isoflurane anesthesia.

The subject of data set [4] is sRA mice. Briefly: Tail-cuff systolic blood pressure during chronic subcutaneous antagonist infusion. Type of data set: in vivo. To be noted: 22 ng/h sc, 10 days chronic infusion.
The subject of data set [5] is patients with heart failure. As to conditions: with traditional diuretics; cited from earlier work.
Data set [6] deals with 2°-branch mesenteric artery. The data set can be described thus: Mesenteric artery vascular reactivity (pressurized myography). Type of data set: cell-based, mice. As to conditions: for Emax: Mus musculus, read-out: Maximum Response. The protocol: Mesenteric Artery Vascular Reactivity: Secondary branches of mesenteric artery were dissected and placed in chilled oxygenated (21% O2, 5% CO2, and 74% N2) Kreb's buffer. A segment (˜1 mm long) of artery was transferred to a vessel chamber (DMT), cannulated with glass micropipettes and secured with silk ligatures. The artery was slowly pressurized to 40 mmHg without flow. After 30 min equilibration, vessel viability was tested by constriction response to 100 mM KCl. Vascular responses to PE (10-9-10-5 mol/L), AVP (10-12-10-7 mol/L), and ET-1 (10-11-10-8 mol/L) were then assessed. The artery was then superfused with calcium-free Krebs buffer containing 10-5 mol/L sodium nitroprusside and 2 mmol/L EGTA to maximally dilate the vessel. Internal and external diameters were measured at 75 mm Hg. Wall thickness, media/lumen ratio and cross sectional area (CSA) were calculated as previously described by Neves, et al. (62).
as §1

Data set [7] concerns isolated neurointermediate lobes. To be noted: baseline and potassium-stimulated conditions; cited from earlier work.
For a further data set, the system named is rats. To be noted: euhydrated vs dehydrated; cited from earlier work.
For data set [8], the system named is sRA mice and littermate controls. Briefly: Plasma vasopressin (ELISA) after BH4 treatment. Format: in vivo. To be noted: BH4 10 mg/kg/day i.p., three days. The protocol:
Methods: Double-transgenic sRA mice and littermate controls were placed into single-mouse metabolic cages (Nalgene), and maintained on a 12:12 light:dark cycle at 22° C. with ad libitum access to standard chow (Teklad 7013) and water. Mice were injected once daily (i.p.) with BH4 to achieve 10 mg/kg/day. On the fourth day, mice were sacrificed by CO2 asphyxiation and trunk blood was collected into lithium heparin-coated tubes and placed on ice between 11:30 AM and 1:00 PM (5.5 to 7 hours into the light phase of the standard light cycle). Blood was then centrifuged at 2,000×g for 20 minutes. Plasma was collected and stored at −80° C. until analysis. Plasma samples were analyzed for vasopressin using a commercially-available ELISA kit (Cayman, catalog #583951), according to the manufacturer's instructions. Results falling outside the range of the standard curve (>3,000 pg/mL or <23.4 pg/mL) were set to the maximum or minimum (3,000 or 23.4 pg/mL), respectively, for statistical comparisons. Data were analyzed by three-way ANOVA followed by Tukey all-pairwise multiple comparison procedures.
A general note: In an ELISA, binding on a coated surface is turned into a signal by an enzyme label.

For a further data set, the system named is DOCA-salt hypertension. As to conditions: rats, intracerebroventricular (ICV) infusion; cited from earlier work.
The mark [9] stands for this setting: males, Control mice, tolvaptan 22 ng/h, 10 days sc.
Setting [10] is: exemplar female sRA mouse, conivaptan 22 ng/h sc, 18 days.

“Also recorded” adds a separate entry of the source. Where two headings read alike, the source gives them in different places.

In the case of `CCCCC[C@H](O)/C=C/[C@@H]1[C@@H](C/C=C\CCCC(=O)O)[C@@H](O)C[C@H]1O` [Prostaglandin F2α], the “Maximum Response” value in the data set on abdominal aorta (male Control mice) turned out to be 1.59 ± 0.06 g; in the data set with abdominal aorta (male sRA mice) it was 1.50 ± 0.10 g.

For `Cc1ccccc1C(=O)Nc1ccc(C(=O)N2CCC[C@@H](O)c3cc(Cl)ccc32)c(C)c1` [Tolvaptan, N-(4-[[(5R)-7-chloro-5-hydroxy-2,3,4,5-tetrahydro-1H-1-benzazepin-1-yl]carbonyl]-3-methylphenyl)-2-methylbenzamide], the “hyponatremia and hypocalcemia of sRA mice” value in data set [1] (chronic tolvaptan delivery, genotype X drug interaction P<0.05 for both) is “corrected both of these imbalances”. The Crenfinine in [1] (females, Control mice, tolvaptan 22 ng/h, 10 days sc) stood at 0.24 ± 0.02 mg/dL; in [1] (females, sRA mice, tolvaptan 22 ng/h, 10 days sc) it was 0.33 ± 0.04 mg/dL; in [1] (setting [9]), 0.25 ± 0.03 mg/dL; in data set [1] (males, sRA mice, tolvaptan 22 ng/h, 10 days sc), 0.30 ± 0.04 mg/dL. The same compound returned a Sodium in data set [1] (setting [9]) of 148 mM. Also, in data set [2], the “reduction of the decline in kidney function compared with placebo” value is reported as “approximately 30%”. Moreover, the “slowing of the usual increase in kidney volume compared to placebo” value in data set [2] is reported as 50%. The “increase in kidney volume” value in data set [2] (placebo 5.51, p<0.001) is given as 2.80 % per year. The reciprocal serum creatinine in data set [2] (placebo −3.81, p<0.001) was −2.61 (mg/mL)-1 per year. Moreover, the “blood pressure (radiotelemetry, MAP)” value in the data set with sRA mice [3] (cohort of sRA mice (n=4 female), tolvaptan sc infusion 10 days) is on record as “blood pressure reduction was confirmed”. Also, in the data set with sRA mice [4], the “systolic blood pressure (tail-cuff)” value is “nearly identical normalization of blood pressure”. In data set [5], the “excretion of excess fluids and blood sodium levels” value was “increase excretion of excess fluids and improve blood sodium levels”. Further, in [5], the side effects result is “without producing side effects such as hypotension (low blood pressure) or hypokalemia”.

In the case of `CNC[C@H](O)c1cccc(O)c1` [Phenylephrine], the Emax in [6] (male Control mice) was 67.3 ± 3%; in [6] (male sRA mice), 64.5 ± 4.1%.

As to `CC[C@H](C)[C@H](NC(=O)[C@H](Cc1ccc(O)cc1)NC(=O)[C@@H](NC(=O)[C@H](CCCNC(=N)N)NC(=O)[C@@H](N)CC(=O)O)C(C)C)C(=O)N[C@@H](Cc1c[nH]cn1)C(=O)N1CCC[C@H]1C(=O)N[C@@H](Cc1ccccc1)C(=O)O` [Angiotensin II], the “Maximum Response” value in the data set with abdominal aorta (male Control mice) is 0.32 ± 0.03 g; with abdominal aorta (male sRA mice) it was 0.38 ± 0.03 g.

On to `CC[C@H](C)[C@H](NC(=O)[C@H](CC(=O)O)NC(=O)[C@H](CC(C)C)NC(=O)[C@H](Cc1c[nH]cn1)NC(=O)[C@@H]1CSSC[C@H](N)C(=O)N[C@@H](CO)C(=O)N[C@H]2CSSC[C@H](NC(=O)[C@H](CCC(=O)O)NC(=O)[C@H](CCCCN)NC(=O)[C@H](CC(=O)O)NC(=O)[C@H](CCSC)NC(=O)[C@H](CC(C)C)NC(=O)[C@H](CO)NC(=O)[C@H](CO)NC2=O)C(=O)N[C@@H](C(C)C)C(=O)N[C@@H](Cc2ccc(O)cc2)C(=O)N[C@@H](Cc2ccccc2)C(=O)N1)C(=O)N[C@H](C(=O)N[C@@H](Cc1c[nH]c2ccccc12)C(=O)O)[C@@H](C)CC` [Endothelin-1], for which the “Maximum Response” value came out at 67.8 ± 4.3% in data set [6] (male Control mice), 58.0 ± 4.6% in data set [6] (male sRA mice), 0.45 ± 0.04 g in the data set on abdominal aorta (male Control mice) and 0.55 ± 0.09 g in the data set on abdominal aorta (male sRA mice).

Take `C[C@H](O)[C@H](O)[C@H]1CNc2[nH]c(N)nc(=O)c2N1` [BH4, (6R)-2-Amino-6-[(1R,2S)-1,2-dihydroxypropyl]-5,6,7,8-tetrahydropteridin-4(1H)-one]: in [7], the vasopressin content result is given as “reduces vasopressin content”. In addition, the neurohypophysial vasopressin result with rats was “reduces neurohypophysial vasopressin under euhydrated but not dehydrated conditions”. Moreover, the “steady-state plasma AVP levels” value in data set [8] (control littermate mice) is given as “no effect on steady-state AVP levels; also recorded: unchanged”; in [8] (sRA mice) it was “significant (P=0.017) reduction; also recorded: significantly (*P=0.017) reduced”.

Consider `C[C@H](CS)C(=O)N1CCC[C@H]1C(=O)O` [captopril], for which the DOCA-salt hypertension result in the data set on DOCA-salt hypertension is “both prevented and reversed DOCA-salt hypertension”.

`CC(=O)OCC[N+](C)(C)C` [Acetylcholine]: the Emax with abdominal aorta (male Control mice) worked out at 78.9 ± 3.3%; with abdominal aorta (male sRA mice), 70.4 ± 8.9%.

Turning to `Cc1nc2c([nH]1)-c1ccccc1N(C(=O)c1ccc(NC(=O)c3ccccc3-c3ccccc3)cc1)CC2` [Conivaptan, N-(4-((4,5-dihydro-2-methylimidazo[4,5-d][1]benzazepin-6(1H)-yl)carbonyl)phenyl)-(1,1′-biphenyl)-2-carboxamide], in the data set on sRA mice [3] (setting [10]), the “blood pressure (telemetry, MAP)” value is on record as “gradual but substantial reduction in blood pressure”; the “heart rate (telemetry)” value is “slight reduction in heart rate”; the spontaneous physical activity result was “remained normal”. The “systolic blood pressure (tail-cuff)” value in the data set with sRA mice [4] was “complete normalization of the hypertension”.
